Results taken from patent US10307403B2, “Polymorphic forms and process” (GALECTO BIOTECH AB, priority 2015, dated 2019).

Columns and labels:
Type in all cases: physicochemical
[1] = Aerodynamic particle size determination (APSD) via New Generation Impactor (NGI); conditions: 20 mg in size 3 HPMC capsule, Plastiape Monodose inhaler
Description: To compare in vitro performance of the different forms for use in inhalation products, an aerodynamic particle size determination (APSD) was performed via New Generation Impactor (NGI) for Form 5 material produced via microfluidization and the amorphous form produced via spray drying. These were compared with the APSD obtained from micronized Form 1 material. For each APSD test, 20 mg 3,3′-Dideoxy-3,3′-bis-[4-(3-fluorophenyl)-1H-1,2,3-triazol-1-yl]-1,1′-sulfanediyl-di-β-D-galactopyranoside was filled into a size 3 HPMC capsule and actuated using a Plastiape Monodose inhaler device.

[2] = Solid form stability and moisture uptake
[3] = Stability of micronized Form 1 under ICH conditions
Source text: There is no increase in impurities and both the particle size and crystalline form remain unchanged.

[4] = listed as Amorphous (Spray Drying)
[5] = listed as Form 5 (microfluidization)

With `OCC1O[C@@H](SC2O[C@H](CO)C(O)C(n3cc(-c4cccc(F)c4)nn3)[C@H]2O)C(O)C(n2cc(-c3cccc(F)c3)nn2)[C@H]1O` (stereo partly drawn) [Amorphous, 3,3′-Dideoxy-3,3′-bis-[4-(3-fluorophenyl)-1H-1,2,3-triazol-1-yl]-1,1′-sulfanediyl-di-β-D-galactopyranoside] the “Mean Mass Aerodynamic Diameter (MMAD)” value [1] was “in the respirable range”, the “Fine Particle Dose (FPD)” value [1, 4] was 11.8 mg and the “Fine Particle Fraction (FPF)” value [1, 4] was 91%. For the same molecule, the “Mean Mass Aerodynamic Diameter (MMAD)” value [1, 4] was 1.7 μm.
With `OC[C@H]1O[C@@H](S[C@@H]2O[C@H](CO)[C@H](O)[C@H](n3cc(-c4cccc(F)c4)nn3)[C@H]2O)[C@H](O)[C@@H](n2cc(-c3cccc(F)c3)nn2)[C@H]1O` [Form 1, 3,3′-Dideoxy-3,3′-bis-[4-(3-fluorophenyl)-1H-1,2,3-triazol-1-yl]-1,1′-sulfanediyl-di-β-D-galactopyranoside] the “Mean Mass Aerodynamic Diameter (MMAD)” value [1] was “in the respirable range”, the “Fine Particle Dose (FPD)” value ([1]; listed as Form 1 (micronized)) was 7.4 mg and the “Fine Particle Fraction (FPF)” value ([1]; listed as Form 1 (micronized)) was 77%. The “Mean Mass Aerodynamic Diameter (MMAD)” value ([1]; listed as Form 1 (micronized)) was 2.6 μm, the “Stability of the solid form (in words)” value [2] was “stable and does not convert to the other forms over time” and the “Equilibrium water content after moisture pick-up” value ([2]; dried upon synthesis, then picks up moisture) was 3-5%. The Appearance ([3]; 6 Months @ 40° C./75 RH) was “Conforms”, the Assay ([3]; 6 Months @ 40° C./75 RH) was 97.2% and the “Particle Size D10” value ([3]; 6 Months @ 40° C./75 RH) was 0.50 μm. For the same molecule, the “Particle Size D50” value ([3]; 6 Months @ 40° C./75 RH) was 1.97 μm, the “Particle Size D90” value ([3]; 6 Months @ 40° C./75 RH) was 4.68 μm and the “Polymorphism (crystalline form found)” value ([3]; 6 Months @ 40° C./75 RH) was “Form 1”. The “Specified impurity DEX-IMP-284-B” value ([3]; 6 Months @ 40° C./75 RH) was 0.89%, the “Specified impurity DEX-IMP-284-C” value ([3]; 6 Months @ 40° C./75 RH) was 0.05% and the “Total Impurities” value ([3]; 6 Months @ 40° C./75 RH) was 1.57%. For the same molecule, the “Unspecified impurity 0.922RRT” value ([3]; 6 Months @ 40° C./75 RH) was 0.12%, the “Unspecified impurity 1.057RRT” value ([3]; 6 Months @ 40° C./75 RH) was 0.11% and the “Unspecified impurity 1.184RRT” value ([3]; 6 Months @ 40° C./75 RH) was 0.34%. The “Water Content” value ([3]; 6 Months @ 40° C./75 RH) was 5.2%, the Appearance ([3]; 12 Months 25° C./60 RH) was “Conforms” and the Assay ([3]; 12 Months 25° C./60 RH) was 97.7%. The “Particle Size D10” value ([3]; 12 Months 25° C./60 RH) was 0.51 μm, the “Particle Size D50” value ([3]; 12 Months 25° C./60 RH) was 1.84 μm and the “Particle Size D90” value ([3]; 12 Months 25° C./60 RH) was 4.29 μm. For the same molecule, the “Polymorphism (crystalline form found)” value ([3]; 12 Months 25° C./60 RH) was “Form 1”, the “Specified impurity DEX-IMP-284-B” value ([3]; 12 Months 25° C./60 RH) was 0.89% and the “Specified impurity DEX-IMP-284-C” value ([3]; 12 Months 25° C./60 RH) was 0.04%. For the same molecule, the “Total Impurities” value ([3]; 12 Months 25° C./60 RH) was 1.54%, the “Unspecified impurity 0.922RRT” value ([3]; 12 Months 25° C./60 RH) was 0.12% and the “Unspecified impurity 1.057RRT” value ([3]; 12 Months 25° C./60 RH) was 0.10%. The “Unspecified impurity 1.184RRT” value ([3]; 12 Months 25° C./60 RH) was 0.34%, the “Water Content” value ([3]; 12 Months 25° C./60 RH) was 4.4% and the “Overall stability conclusion (in words)” value ([3]; ICH conditions, Table 3A) was “stable both chemically and physically”. For the same molecule, the “Particle Size D10” value ([3]; Initial) was 0.56 μm, the “Polymorphism (crystalline form found)” value ([3]; Initial) was “Form 1” and the “Unspecified impurity 1.057RRT” value ([3]; Initial) was 0.08%. The “Unspecified impurity 1.184RRT” value ([3]; Initial) was 0.34%, the “Water Content” value ([3]; Initial) was 4.2% and the Assay ([3]; Initial, criterion 95.0-105.0% w/w) was 97.9%. The Appearance ([3]; Initial, criterion white to off-white solid) was “Conforms”, the “Specified impurity DEX-IMP-284-B” value ([3]; Initial, criterion ≤1% (a/a)) was 0.90% and the “Specified impurity DEX-IMP-284-C” value ([3]; Initial, criterion ≤1% (a/a)) was 0.03%. The “Unspecified impurity 0.922RRT” value ([3]; Initial, criterion ≤1% each (a/a)) was 0.12%, the “Total Impurities” value ([3]; Initial, criterion ≤2.5% (a/a)) was 1.54% and the “Particle Size D50” value ([3]; Initial, target D50 ~2 μm) was 2.37 μm. The “Particle Size D90” value ([3]; Initial, target D90 ≤5 μm) was 5.09 μm.
For `OCC1O[C@@H](SC2O[C@H](CO)C(O)C(n3cc(-c4cccc(F)c4)nn3)[C@H]2O)C(O)C(n2cc(-c3cccc(F)c3)nn2)[C@H]1O` (stereo partly drawn) [Form 5, 3,3′-Dideoxy-3,3′-bis-[4-(3-fluorophenyl)-1H-1,2,3-triazol-1-yl]-1,1′-sulfanediyl-di-β-D-galactopyranoside], the “Mean Mass Aerodynamic Diameter (MMAD)” value [1] was “in the respirable range”, the “Fine Particle Dose (FPD)” value [1, 5] was 7.7 mg and the “Fine Particle Fraction (FPF)” value [1, 5] was 63%. The “Mean Mass Aerodynamic Diameter (MMAD)” value [1, 5] was 2.3 μm and the “Stability of the solid form (in words)” value [2] was “stable”.
